From patent US9890147B2 (BAYER PHARMA AKTIENGESELLSCHAFT, priority 2012, dated 2018)

Experiments:
[1] = test system: MOLP-8 cells; assay: Cell proliferation assay (alamarBlue), MOLP-8; format: cell-based; conditions: Homo sapiens, 120 hours incubation, inhibition of cell proliferation
Procedure: (§1) In accordance with the invention, the capability of the substances to inhibit cell proliferation was determined Cell viability was determined using the alamarBlue® reagent (Invitrogen) in a Victor X3 Multilabel Reader (Perkin Elmer). The excitation wavelength was 530 nm and the emission wavelenth […].
The MOLP-8 cells (DSMZ, ACC 569) were sown at a concentration of 4000 cells/well in 100 μl growth medium (RPMI1640, 20% FCS) on 96-well microtitre plates.
(§2) After an overnight incubation at 37° C., the fluorescence values (CI values) were determined. The plates were then treated with various substance dilutions (1E-5 M, 3E-6 M, 1E-6M, 3E-7 M, 1E-7 M, 3E-8 M, 1E-8 M) and incubated at 37° C. for 72 (MV4-11-, LOX-IMVI cells), 96 (MOLM-13-, B16F10-, MDA-MB-431-, Caov-3 cells), 120 (MOLP-8-, KMS-12-PE cells) or 168 (LAPC-4 cells) hours. The fluorescence values (CO values) were then determined. For the data analysis, the CI values were subtracted from the CO values and the results were compared between cells treated with different dilutions of the substance or with buffer solution only. These were used to calculate the IC 50 values (substance concentration required for 50% inhibition of cell proliferation).

[2] = test system: MOLM-13 cells; assay: Cell proliferation assay (alamarBlue), MOLM-13; format: cell-based; conditions: Homo sapiens, 96 hours incubation, inhibition of cell proliferation
Procedure, shortened: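 Cells in RPMI1640/10% FCS read by alamarBlue fluorescence (ex 530, em 590 nm) after overnight 37 °C incubation, then treated at 1E-5 to 1E-8 M for 96 h. Pre-treatment values subtracted from endpoint values and compared with buffer-only wells; IC50 is 50% proliferation inhibition.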

[3] = target: T1, BRD4 (BD1) (Homo sapiens, UniProt O60885); assay: Binding assay BRD4/acetylated peptide H4 (TR-FRET protein-protein interaction assay)
T1 construct: with relatively long constructs also being possible, preferably amino acids 44-168; made in house; host or cells: E. coli
Procedure, shortened: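 His6-BRD4 BD1 (aa 67-152, E. coli), usually 10 nM, with biotinylated tetra-acetylated H4 peptide in HEPES pH 7.5 buffer; 11 compound concentrations 0.1 nM–20 μM in duplicate, 10 min preincubation, 1 h at 22 °C then ≥3 h at 4 °C. TR-FRET 665/620 ratio; IC50 by 4-parameter fit.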

[4] = test system: Caov-3 cells; assay: Cell proliferation assay (alamarBlue), Caov-3; format: cell-based; conditions: Homo sapiens; inhibition of cell proliferation, Caov-3 (ovarian carcinoma), 96 hours
Procedure: as §1
The MDA-MB-231 cells (DSMZ, ACC 732) were sown at a concentration of 4000 cells/well in 100 μl growth medium (DMEM/Ham's F12 medium, 10% FCS) on 96-well microtitre plates. The Caov-3 cells (ATCC, HTB-75) were sown at a concentration of 2000 cells/well in 100 μl growth medium (MEM Earle's medium, 10% FCS) on 96-well microtitre plates.
as §2

[5] = test system: MV4-11 cells; assay: Cell proliferation assay (alamarBlue), MV4-11; format: cell-based; conditions: Homo sapiens, 72 hours incubation, inhibition of cell proliferation
Procedure: as §1
The MV4-11 cells (ATCC, CRL 9591) were sown at a concentration of 5000 cells/well in 100 μl growth medium (RPMI1640, 10% FCS) on 96-well microtitre plates.
as §2

[6] = test system: LOX-IMVI cells; assay: Cell proliferation assay (alamarBlue), LOX-IMVI; format: cell-based; conditions: Homo sapiens, 72 hours incubation, inhibition of cell proliferation
Procedure: as §1
The LOX-IMVI cells (NCI-60) were sown at a concentration of 1000 cells/well in 100 μl growth medium (RPMI1640, 10% FCS) on 96-well microtitre plates.
as §2

[7] = test system: KMS-12-PE cells; assay: Cell proliferation assay (alamarBlue), KMS-12-PE; format: cell-based; conditions: Homo sapiens, 120 hours incubation, inhibition of cell proliferation
Procedure: as §1
The KMS-12-PE cells (DSMZ, ACC 606) were sown at a concentration of 4000 cells/well in 100 μl growth medium (RPMI1640, 20% FCS) on 96-well microtitre plates.
as §2

IC50 [2] [µM]	IC50 [3] [µM]	IC50 [5] [µM]	Structure (SMILES)	IC50 [1] [µM]	IC50 [4] [µM]	IC50 [6] [µM]	IC50 [7] [µM]
0.24	0.04	0.12	CNC(=O)N1N=C(c2ccc(N3CCOC3=O)cc2)c2cc(OC)c(OC)cc2C[C@@H]1C [Example 34.1, (4S)-7,8-Dimethoxy-N,4-dimethyl-1-[4-(2-oxooxazolidin-3-yl)phenyl]-4,5-dihydro-3H-2,3-benzodiazepine-3-carboxamide]	0.08	0.31	0.44	0.08
0.15	0.02	0.07	CNC(=O)N1N=C(c2ccc(N3CCC3)cc2)c2cc(OC)c(OC)cc2C[C@@H]1C [Example 128.2, (4S)-1-[4-(azetidin-1-yl)phenyl]-7,8-dimethoxy-N,4-dimethyl-4,5-dihydro-3H-2,3-benzodiazepine-3-carboxamide]	0.05	0.16	0.19	0.05
0.08	0.03	0.05	CNC(=O)N1N=C(c2ccc(-n3nc(-c4ccccc4)cc3C3CC3)cc2)c2cc(OC)c(OC)cc2C[C@@H]1C [Example 148.1, (4S)-1-[4-(5-cyclopropyl-3-phenyl-1H-pyrazol-1-yl)phenyl]-7,8-dimethoxy-N,4-dimethyl-4,5-dihydro-3H-2,3-benzodiazepine-3-carboxamide]	0.05	0.13	0.09	0.05
0.23	0.11	0.13	CNC(=O)N1N=C(c2ccc(-n3ccc(-c4ccc(F)cc4)n3)cc2)c2cc(OC)c(OC)cc2C[C@@H]1C [Example 150.1, (4S)-1-{4-[3-(4-fluorophenyl)-1H-pyrazol-1-yl]phenyl}-7,8-dimethoxy-N,4-dimethyl-4,5-dihydro-3H-2,3-benzodiazepine-3-carboxamide]	0.23	0.34	0.34	0.18
0.11	0.03	0.05	CNC(=O)N1N=C(c2ccc(-c3c(C)nn(C)c3C)cc2)c2cc(OC)c(OC)cc2C[C@@H]1C [Example 51.2, (4S)-7,8-dimethoxy-N,4-dimethyl-1-[4-(1,3,5-trimethyl-1H-pyrazol-4-yl)phenyl]-4,5-dihydro-3H-2,3-benzodiazepine-3-carboxamide]	0.05	0.13	0.17	0.04

More lines, now with the values behind:

Structure (SMILES)	IC50 [2] [µM]	IC50 [3] [µM]	IC50 [5] [µM]	IC50 [1] [µM]	IC50 [4] [µM]	IC50 [6] [µM]	IC50 [7] [µM]
CNC(=O)N1N=C(c2ccc(-c3cccnc3C(F)(F)F)cc2)c2cc(OC)c(OC)cc2CC1C (racemic) [Example 48, (±)-7,8-dimethoxy-N,4-dimethyl-1-{4-[2-(trifluoromethyl)pyridin-3-yl]phenyl}-4,5-dihydro-3H-2,3-benzodiazepine-3-carboxamide]	0.19	0.11	0.22	0.25	0.47	0.65	0.26
CNC(=O)N1N=C(c2ccc(-c3cn(C)nn3)cc2)c2cc(OC)c(OC)cc2CC1C (racemic) [Example 45, (±)-7,8-dimethoxy-N,4-dimethyl-1-[4-(1-methyl-1H-1,2,3-triazol-4-yl)phenyl]-4,5-dihydro-3H-2,3-benzodiazepine-3-carboxamide]	0.23	0.04	0.14	0.13	0.24	0.35	0.13
CNC(=O)N1N=C(c2ccc(N3CCN(C)CC3)cc2)c2cc(OC)c(OC)cc2CC1C (racemic) [Example 127, (±)-7,8-dimethoxy-N,4-dimethyl-1-[4-(4-methylpiperazin-1-yl)phenyl]-4,5-dihydro-3H-2,3-benzodiazepine-3-carboxamide]	0.18	0.08	0.12	0.09	0.24	0.25	0.09
CNC(=O)N1N=C(c2ccc(N3CCCCC3)cc2)c2cc(OC)c(OC)cc2CC1C (racemic) [Example 139, (±)-7,8-dimethoxy-N,4-dimethyl-1-[4-(piperidin-1-yl)phenyl]-4,5-dihydro-3H-2,3-benzodiazepine-3-carboxamide]	0.21	0.04	0.13	0.13	0.31	0.38	0.11
CNC(=O)N1N=C(c2ccc(-c3sc(C)nc3C)cc2)c2cc(OC)c(OC)cc2CC1C (racemic) [Example 46, (±)-1-[4-(2,4-dimethylthiazol-5-yl)phenyl]-7,8-dimethoxy-N,4-dimethyl-4,5-dihydro-3H-2,3-benzodiazepine-3-carboxamide]	0.19	0.03	0.11	0.16	0.28	0.37	0.12
CNC(=O)N1N=C(c2ccc(N3CCN(C(C)=O)CC3)cc2)c2cc(OC)c(OC)cc2CC1C (racemic) [Example 132, (±)-1-[4-(4-acetylpiperazin-1-yl)phenyl]-7,8-dimethoxy-N,4-dimethyl-4,5-dihydro-3H-2,3-benzodiazepine-3-carboxamide]	0.2	0.03	0.13	0.12	0.32	0.42	0.11
CNC(=O)N1N=C(c2ccc(-n3nc(-c4ccccc4)cc3C)cc2)c2cc(OC)c(OC)cc2CC1C (racemic) [Example 147, (±)-7,8-Dimethoxy-N,4-dimethyl-1-[4-(5-methyl-3-phenyl-1H-pyrazol-1-yl)phenyl]-4,5-dihydro-3H-2,3-benzodiazepine-3-carboxamide]	0.07	0.03	0.05	0.08	0.18	0.18	0.06
CNC(=O)N1N=C(c2ccc(N3CC(F)C3)cc2)c2cc(OC)c(OC)cc2CC1C (racemic) [Example 129, (±)-1-[4-(3-fluoroazetidin-1-yl)phenyl]-7,8-dimethoxy-N,4-dimethyl-4,5-dihydro-3H-2,3-benzodiazepine-3-carboxamide]	0.22	0.05	0.18	0.15	0.42	0.58	0.12
CNC(=O)N1N=C(c2ccc(-c3c(C)nn(C)c3C)cc2)c2cc(OC)c(OC)cc2CC1C (racemic) [Example 51, (±)-7,8-dimethoxy-N,4-dimethyl-1-[4-(1,3,5-trimethyl-1H-pyrazol-4-yl)phenyl]-4,5-dihydro-3H-2,3-benzodiazepine-3-carboxamide]	0.21	0.03	0.12	0.12	0.28	0.35	0.09
CNC(=O)N1N=C(c2ccc(N3CCNCC3)cc2)c2cc(OC)c(OC)cc2CC1C (racemic) [Example 131, (±)-7,8-dimethoxy-N,4-dimethyl-1-[4-(piperazin-1-yl)phenyl]-4,5-dihydro-3H-2,3-benzodiazepine-3-carboxamide]	0.11	0.05	0.04	0.03	0.05	0.07	0.03
